# Results published in patent US20110160223A1, “NMDA Receptor Antagonists for the Treatment of Neuropsychiatric Disorders” (priority 2008, published 2011).
# Where two headings read alike, the source gives them in different places.
# Biological target: NMDA receptor (NR1 + NR2 subunits) (Rattus norvegicus, UniProt P35439+Q00960)
# Experiment: Two electrode voltage clamp recording from Xenopus laevis oocytes (pH dependence of NMDA antagonism)
# Assay type: cell-based
# Protocol: cRNA was synthesized from linearized template cDNA for rat glutamate receptor subunits according to manufacturer specifications (Ambion). Quality of synthesized cRNA was assessed by gel electrophoresis, and quantity was estimated by spectroscopy and gel electrophoresis. Stage V and VI oocytes were surgically removed from the ovaries of large, well-fed and healthy Xenopus laevis anesthetized with 3-amino-benzoic acid ethyl ester (3 gm/l) as previously described. Clusters of isolated oocytes were incubated with 292 U/ml Worthington (Freehold, N.J.) type IV collagenase or 1.3 mg/ml collagenase (Life Technologies, Gaithersburg, Md.; 17018-029) for 2 hr in Ca^2+-free solution comprised of (in mM) 115 NaCl, 2.5 KCl, and 10 HEPES, pH 7.5, with slow agitation to remove the follicular cell layer. Oocytes were then washed extensively in the same solution supplemented with 1.8 mM CaCl2 and maintained in Barth's solution comprised of (in mM): 88 NaCl, 1 KCl, 2.4 NaHCO3, 10 HEPES, 0.82 MgSO4, 0.33 Ca(NO3)2, and 0.91 CaCl2 and supplemented with 100 μg/ml gentamycin, 10 μg/ml streptomycin, and 10 μg/ml penicillin. Oocytes were manually defolliculated and injected within 24 hrs of isolation with 3-5 ng of NR1 subunit cRNA and 7-10 ng of NR2 cRNA subunit in a 50 nl volume, or 5-10 ng of AMPA or kainate receptor cRNAs in a 50 nl volume, and incubated in Barth's solution at 18° C. for 1-7 d. Glass injection pipettes had tip sizes ranging from 10-20 microns, and were backfilled with mineral oil.
# Two electrode voltage-clamp recordings were made 2-7 days post-injection as previously described. Oocytes were placed in a dual-track plexiglass recording chamber with a single perfusion line that splits in a Y-configuration to perfuse two oocytes. Dual recordings were made at room temperature (23° C.) using two Warner OC725B two-electrode voltage clamp amplifiers, arranged as recommended by the manufacturer. Glass microelectrodes (1-10 Megaohms) were filled with 300 mM KCl (voltage electrode) or 3 M KCl (current electrode). The bath clamps communicated across silver chloride wires placed into each side of the recording chamber, both of which were assumed to be at a reference potential of 0 mV. Oocytes were perfused with a solution comprised of (in mM) 90 NaCl, 1 KCl, 10 HEPES, and 0.5 BaCl2; pH was adjusted by addition of 1-3 M NaOH of HCl. Oocytes were recorded under voltage clamp at −40 mV. Final concentrations for control application of glutamate (50 μM) plus glycine (30 μM) were achieved by adding appropriate volumes from 100 and 30 mM stock solutions, respectively. In addition, 10 μM final EDTA was obtained by adding a 1:1000 dilution of 10 mM EDTA, in order to chelate contaminant divalent ions such as Zn^2+. Concentration-response curves for experimental compounds were obtained by applying in successive fashion maximal glutamate/glycine, followed by glutamate/glycine plus variable concentrations of experimental compounds. Dose response curves consisting of 4 to 8 concentrations were obtained in this manner. The baseline leak current at −40 mV was measured before and after recording, and the full recording linearly corrected for any change in leak current. Oocytes with glutamate-evoked responses smaller than 50 nA were not included in the analysis. The level of inhibition by applied experimental compounds was expressed as a percent of the initial glutamate response, and averaged together across oocytes from a single frog. Each experiment consisted of recordings from 3 to 10 oocytes obtained from a single frog. Results from 3-6 experiments were pooled, and the average percent responses at antagonist concentrations were fitted by the equation,
# Percent Response=(100−minimum)/(1+([conc]/IC50)^nH)+minimum […]
# [1] = pH 6.9, Table 19, read-out: IC50 at pH 6.9
# [2] = pH 7.6, Table 19, read-out: IC50 at pH 7.6
# [3] = pH 6.9, Table 17, read-out: IC50 at pH 6.9
# [4] = pH 7.6, Table 17, read-out: IC50 at pH 7.6
# [5] = pH 6.9, Table 20, read-out: IC50 at pH 6.9
# [6] = pH 7.6, Table 20, read-out: IC50 at pH 7.6
# [7] = pH 6.9, Table 21, read-out: IC50 at pH 6.9
# [8] = pH 7.6, Table 21, read-out: IC50 at pH 7.6
# [9] = pH 6.9, Table 18, read-out: IC50 at pH 6.9
# [10] = pH 7.6, Table 18, read-out: IC50 at pH 7.6
# Sequence of NMDA receptor (NR1 + NR2 subunits) (Q00960 27-1482, other chains not shown): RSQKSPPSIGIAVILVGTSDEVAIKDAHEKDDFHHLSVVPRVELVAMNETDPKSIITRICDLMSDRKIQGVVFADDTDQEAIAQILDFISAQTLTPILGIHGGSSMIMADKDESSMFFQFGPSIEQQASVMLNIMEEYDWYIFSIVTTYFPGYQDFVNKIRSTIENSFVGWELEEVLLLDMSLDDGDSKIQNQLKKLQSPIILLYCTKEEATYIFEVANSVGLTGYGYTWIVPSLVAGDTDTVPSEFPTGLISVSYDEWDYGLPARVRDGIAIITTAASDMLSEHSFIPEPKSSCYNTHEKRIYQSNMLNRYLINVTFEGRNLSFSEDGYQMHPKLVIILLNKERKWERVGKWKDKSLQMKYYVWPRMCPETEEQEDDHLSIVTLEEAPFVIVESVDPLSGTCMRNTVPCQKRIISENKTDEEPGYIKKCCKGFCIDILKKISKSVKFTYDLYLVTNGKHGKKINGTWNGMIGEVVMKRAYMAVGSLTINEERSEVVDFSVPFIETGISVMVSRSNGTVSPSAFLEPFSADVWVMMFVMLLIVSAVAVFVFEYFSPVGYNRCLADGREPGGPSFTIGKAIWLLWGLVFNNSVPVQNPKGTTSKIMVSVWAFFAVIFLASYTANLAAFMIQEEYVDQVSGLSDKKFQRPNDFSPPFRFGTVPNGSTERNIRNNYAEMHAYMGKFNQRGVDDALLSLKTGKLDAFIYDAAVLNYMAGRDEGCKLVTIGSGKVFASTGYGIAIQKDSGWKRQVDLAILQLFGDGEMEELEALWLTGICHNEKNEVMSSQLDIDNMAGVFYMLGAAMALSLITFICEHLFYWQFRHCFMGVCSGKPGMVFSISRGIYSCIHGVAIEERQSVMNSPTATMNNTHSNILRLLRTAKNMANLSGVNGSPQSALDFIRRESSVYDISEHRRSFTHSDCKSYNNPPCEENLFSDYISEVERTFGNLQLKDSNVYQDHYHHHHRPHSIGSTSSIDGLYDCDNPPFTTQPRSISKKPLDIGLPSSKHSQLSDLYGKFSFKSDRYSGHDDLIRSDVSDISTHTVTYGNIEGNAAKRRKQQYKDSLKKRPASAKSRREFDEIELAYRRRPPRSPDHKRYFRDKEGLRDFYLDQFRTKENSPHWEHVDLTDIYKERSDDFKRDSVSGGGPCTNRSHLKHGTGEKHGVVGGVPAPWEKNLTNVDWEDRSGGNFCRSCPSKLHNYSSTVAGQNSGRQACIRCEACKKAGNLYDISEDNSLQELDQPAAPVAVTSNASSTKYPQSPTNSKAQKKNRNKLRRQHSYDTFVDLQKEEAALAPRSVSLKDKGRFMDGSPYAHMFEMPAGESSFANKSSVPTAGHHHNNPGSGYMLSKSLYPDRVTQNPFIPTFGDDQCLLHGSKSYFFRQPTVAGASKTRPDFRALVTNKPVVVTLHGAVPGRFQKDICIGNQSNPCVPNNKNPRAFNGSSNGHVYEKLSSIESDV
structure (smiles),measurement,setting,value
Oc1ccc(OC[C@H](O)CN2CCN(c3ccc(Cl)c(Cl)c3)CC2)cc1,IC50,[1],131 nM
same,IC50,[2],611 nM
CS(=O)(=O)Nc1ccc(OCC(O)CN2CCN(c3ccncc3)CC2)cc1 (centres unmarked),IC50,[3],> 30000 nM
same,IC50,[4],> 30000 nM
CS(=O)(=O)Nc1ccc(OCC(O)CN2CCN(c3ccccn3)CC2)cc1 (centres unmarked),IC50,[3],1810 nM
same,IC50,[4],12700 nM
N#Cc1ccc(N2CCN(C[C@@H](O)COc3ccc(O)cc3)CC2)cc1,IC50,[1],460 nM
same,IC50,[2],4370 nM
COC(=O)Nc1ccc(OCCCN2CCN(c3ccc(F)cc3)CC2)cc1,IC50,[5],1540 nM
same,IC50,[6],16200 nM
CS(=O)(=O)Nc1ccc(CCC(=O)N2CCN(c3ccc(Cl)c(Cl)c3)CC2)cc1,IC50,[7],670 nM
same,IC50,[8],5330 nM
CS(=O)(=O)Nc1ccc(OCC(=O)NCCNc2ccc(Cl)c(Cl)c2)cc1,IC50,[7],13 nM
same,IC50,[8],58 nM
CS(=O)(=O)Nc1ccc(CCCN2CCN(c3ccc(Cl)c(Cl)c3)C2=O)cc1,IC50,[7],160 nM
same,IC50,[8],809 nM
COc1ccc(N2CCN(C[C@@H](O)COc3ccc(O)cc3)CC2)cc1,IC50,[1],562 nM
same,IC50,[2],9740 nM
CS(=O)(=O)Nc1ccc(OCC(O)CNC/C=C/c2ccc(F)c(F)c2)cc1 (centres unmarked),IC50,[3],38 nM
same,IC50,[4],71 nM
CS(=O)(=O)Nc1ccc(OCC(O)CNC/C=C/c2ccc(Cl)c(Cl)c2)cc1 (centres unmarked),IC50,[3],7 nM
same,IC50,[4],38 nM
CS(=O)(=O)Nc1ccc(OCC(=O)N2CCN(c3ccc(Cl)c(Cl)c3)CC2)cc1,IC50,[7],40 nM
same,IC50,[8],129 nM
CS(=O)(=O)Nc1ccc(OCC(O)CN2CCN(c3ccc(Cl)cc3)CC2)cc1 (centres unmarked),IC50,[3],32 nM
same,IC50,[4],270 nM
CS(=O)(=O)Nc1ccc(OCC(O)CNCCNc2ccc(Cl)c(Cl)c2)cc1 (centres unmarked),IC50,[3],12 nM
same,IC50,[4],62 nM
NC(=O)Nc1ccc(OCCCN2CCN(c3ccc(F)cc3)CC2)cc1,IC50,[5],117 nM
same,IC50,[6],625 nM
O=c1[nH]c2ccc(OC[C@H](O)CN3CCN(c4ccc(F)c(F)c4)CC3)cc2o1,IC50,[9],145 nM
same,IC50,[10],1700 nM
Cc1cccc(N2CCN(C[C@@H](O)COc3ccc(O)cc3)CC2)c1,IC50,[1],341 nM
same,IC50,[2],1740 nM
Oc1ccc(OCC(O)CN2CCN(c3ccc(F)c(F)c3)CC2)cc1 (centres unmarked),IC50,[1],87 nM
same,IC50,[2],980 nM
CS(=O)(=O)Nc1ccc(CCC(=O)NC/C=C/c2ccc(Cl)c(Cl)c2)cc1,IC50,[7],10 nM
same,IC50,[8],70 nM
CS(=O)(=O)Nc1ccc(OCC(O)CNCCNc2ccc(F)c(F)c2)cc1 (centres unmarked),IC50,[3],108 nM
same,IC50,[4],199 nM
O=C(COc1ccc2[nH]c(=O)oc2c1)N1CCN(c2ccc(Cl)cc2)CC1,IC50,[7],189 nM
same,IC50,[8],243 nM
Oc1ccc(OCC(O)CN2CCN(c3ccccc3Cl)CC2)cc1 (centres unmarked),IC50,[1],978 nM
same,IC50,[2],4390 nM
O=c1[nH]c2ccc(OCC(O)CNCCNc3ccc(Cl)cc3)cc2o1 (centres unmarked),IC50,[9],25 nM
same,IC50,[10],97 nM
CS(=O)(=O)Nc1ccc(OCC(O)CN2CCN(c3ccc(O)cc3)CC2)cc1 (centres unmarked),IC50,[3],2400 nM
same,IC50,[4],28000 nM
Oc1ccc(OC[C@H](O)CN2CCN(c3ccc(Cl)cc3)CC2)cc1,IC50,[1],80 nM
same,IC50,[2],814 nM
CCNC(=O)Nc1ccc(OCCCN2CCN(c3ccc(F)cc3)CC2)cc1,IC50,[5],3030 nM
same,IC50,[6],15700 nM
O[C@H](COc1ccc2[nH]ccc2c1)CN1CCN(c2ccc(Cl)cc2)CC1,IC50,"pH 6.9, Table 22, read-out: IC50 pH 6.9",> 10000 nM
same,IC50,"pH 7.6, Table 22, read-out: IC50 pH 7.6",> 10000 nM
CS(=O)(=O)Nc1ccc(CCC(=O)N2CCN(c3ccc(F)c(F)c3)CC2)cc1,IC50,[7],2200 nM
same,IC50,[8],8400 nM
O=C(COc1ccc2[nH]c(=O)oc2c1)N1CCN(c2ccc(F)c(F)c2)CC1,IC50,[7],307 nM
same,IC50,[8],467 nM
Oc1ccc(OC[C@H](O)CN2CCN(c3ccc(F)cc3F)CC2)cc1,IC50,[1],529 nM
same,IC50,[2],3560 nM
Oc1ccc(OC[C@H](O)CN2CCC(O)(c3ccccc3)CC2)cc1,IC50,[1],191 nM
same,IC50,[2],298 nM
CS(=O)(=O)Nc1ccc(CCCNCCNc2ccc(Cl)c(Cl)c2)cc1,IC50,[7],2 nM
same,IC50,[8],21 nM
Cc1ccc(N2CCN(CC(O)COc3ccc(O)cc3)CC2)cc1 (centres unmarked),IC50,[1],70 nM
same,IC50,[2],260 nM
Cc1ccc(N2CCN(C[C@@H](O)COc3ccc4[nH]c(=O)oc4c3)CC2)cc1,IC50,[9],72 nM
same,IC50,[10],644 nM
CS(=O)(=O)Nc1ccc(OCC(O)CN2CCN(c3ccc(F)c(F)c3)CC2)cc1 (centres unmarked),IC50,[3],31 nM
same,IC50,[4],557 nM
CS(=O)(=O)Nc1ccc(OCC(O)CN2CCN(c3ccccc3)CC2)cc1 (centres unmarked),IC50,[3],213 nM
same,IC50,[4],1020 nM
CCCCN(C/C=C/c1ccc(Cl)c(Cl)c1)CC(O)COc1ccc(NS(C)(=O)=O)cc1 (centres unmarked),IC50,[3],163 nM
same,IC50,[4],2580 nM
CS(=O)(=O)Nc1ccc(CCCN2CCN(c3ccc(Cl)c(Cl)c3)CC2)cc1,IC50,[7],230 nM
same,IC50,[8],2730 nM
CS(=O)(=O)Nc1ccc(OCCNCCNc2ccc(Cl)c(Cl)c2)cc1,IC50,[7],14 nM
same,IC50,[8],36 nM
NC(=O)Nc1ccc(OCCCN2CCN(c3ccc(F)c(F)c3)CC2)cc1,IC50,[5],82 nM
same,IC50,[6],696 nM
CCCCN(CCc1ccc(Cl)c(Cl)c1)CC(O)COc1ccc(O)cc1 (centres unmarked),IC50,[1],585 nM
same,IC50,[2],6500 nM
Oc1ccc(OCC(O)CN2CCN(c3ccccc3)CC2)cc1 (centres unmarked),IC50,[1],217 nM
same,IC50,[2],476 nM
Oc1ccc(OC[C@H](O)CN2CCN(c3ccccc3F)CC2)cc1,IC50,[1],541 nM
same,IC50,[2],1730 nM
O=C(COc1ccc(O)cc1)NCCNc1ccc(Cl)c(Cl)c1,IC50,[7],280 nM
same,IC50,[8],515 nM
Cc1ccc(N2CCN(CC(O)COc3ccc(O)cc3)CC2)cc1C (centres unmarked),IC50,[1],1500 nM
same,IC50,[2],5790 nM
C=C(COc1ccc(NC(N)=O)cc1)CN1CCN(c2ccc(F)c(F)c2)CC1,IC50,[5],557 nM
same,IC50,[6],10400 nM
O=C(COc1ccc2[nH]c(=O)oc2c1)N1CCN(c2ccc(Cl)c(Cl)c2)CC1 [drawing 768],IC50,[7],41 nM
same,IC50,[8],45 nM
Oc1ccc(OCC(O)CNCCc2ccc(Cl)c(Cl)c2)cc1 (centres unmarked),IC50,[1],197 nM
same,IC50,[2],501 nM
Oc1ccc(OC[C@H](O)CN2CCN(c3cccc(Cl)c3)CC2)cc1,IC50,[1],257 nM
same,IC50,[2],4800 nM
